Laboratory results: patent US20120323002A1, “IMIDAZOPYRIDAZINE COMPOUNDS” (AJINOMOTO CO., INC., priority 2009, published 2012)

Experiments:
Assay type in all cases: cell-based, mouse (female Balb/c)
[1] = system: IL-12p70 (IL-12p35/p40 complex); assay: Cytokine inhibiting action using mouse peritoneal macrophages: IL-12p70 production (ELISA); conditions: Peritoneal macrophage, 100 ng/mL mouse interferon-γ + 0.05% (v/v) SAC, incubated overnight, 50% production inhibition concentration
Protocol: (§1) 1 mL of a 3% (w/v) thioglycolate solution was intraperitoneally administered to a mouse (female Balb/c). 5 or 6 days later, the peritoneal cells of the mouse were collected, and the adherent cells were used for evaluation. 100 ng/mL of mouse interferon-γ, a 0.05% (v/v) suspension of killed Staphylococcus aureus Cowan I strain (SAC) and a compound of the present invention were added thereto and incubated overnight. After the incubation, the survival rate was measured, and each of IL-12p70 (IL-12p35/p40 complex) and TNF-α was quantified by ELISA using the collected culture supernatant to calculate the 50% production inhibition concentration (IC50) (refer to Table 1; meanwhile, the blanks in the table indicate unmeasured).

TNF-α = assay: Cytokine inhibiting action using mouse peritoneal macrophages: TNF-α production (ELISA); conditions: Peritoneal macrophage, 100 ng/mL mouse interferon-γ + 0.05% (v/v) SAC, incubated overnight, 50% production inhibition concentration
Protocol: as §1

[2] = system: IL-12p70 (IL-12p35/p40 complex); assay: Cytokine inhibiting action using mouse whole blood: IL-12p70 production (ELISA); conditions: mouse whole blood (EDTA), 200 ng/mL mouse interferon-γ + 1.25% (v/v) SAC, incubated overnight; 50% production inhibition concentration
Protocol: The blood (EDTA addition) was collected from a mouse (female Balb/c) and used for evaluation. 200 ng/mL of mouse interferon-γ, a 1.25% (v/v) suspension of killed Staphylococcus aureus Cowan I strain (SAC) and a compound of the present invention were added to a cell culture medium, diluted to become a quantity equal to the blood and incubated overnight.

Row | Compound | IC50 [1] | IC50 (TNF-α) | IC50 [2]
1 | Cc1cccc(/C=N/Nc2cc(N3CCOCC3)c3nc(-c4ccccc4)cn3n2)c1 [Compound 1, N-(3-methyl-benzylidene)-N′-(8-morpholin-4-yl-2-phenyl-imidazo[1,2-b]pyridazin-6-yl)-hydrazine] | 32 nM | – | –
2 | C(=N\Nc1cc(N2CCOCC2)c2nc(-c3ccccc3)cn2n1)/c1c[nH]c2ccccc12 [Compound 2, N-(1H-indol-3-yl-methylidene)-N′-(8-morpholin-4-yl-2-phenyl-imidazo[1,2-b]pyridazin-6-yl)-hydrazine] | 36 nM | – | –
3 | C(=N\Nc1cc(N2CCOCC2)c2nc(-c3ccncc3)cn2n1)/c1coc2ccccc12 [Compound 9, N-benzofuran-3-yl-methylidene-N′-(8-morpholin-4-yl-2-pyridin-4-yl-imidazo[1,2-b]pyridazin-6-v)-hydrazine] | 76 nM | – | 890 nM
4 | CCc1cccc(/C=N/Nc2cc(N3CCOCC3)c3nc(-c4ccncc4)cn3n2)c1 [Compound 10, N-(3-ethyl-benzylidene)-N′-(8-morpholin-4-yl-2-pyridin-4-yl-imidazo[1,2-b]pyridazin-6-yl)-hydrazine] | 8.1 nM | – | 180 nM
5 | C(=N\Nc1cc(N2CCOCC2)c2nc(-c3ccncc3)cn2n1)/c1csc2ccccc12 [Compound 11, N-benzo[b]thiophen-3-yl-methylidene-N′-(8-morpholin-4-yl-2-pyridin-4-yl-imidazo[1,2-b]pyridazin-6-yl)-hydrazine] | 30 nM | – | 1000 nM
6 | Cc1ccc(/C=N/Nc2cc(N3CCOCC3)c3nc(-c4ccncc4)cn3n2)o1 [Compound 13, N-(5-methyl-furan-2-yl-methylidene)-N′-(8-morpholin-4-yl-2-pyridin-4-yl-imidazo[1,2-b]pyridazin-6-yl)-hydrazine] | 190 nM | – | –
7 | CC(C)c1cccc(/C=N/Nc2cc(N3CCOCC3)c3nc(-c4ccncc4)cn3n2)c1 [Compound 14, N-(3-isopropyl-benzylidene)-N′-(8-morpholin-4-yl-2-pyridin-4-yl-imidazo[1,2-b]pyridazin-6-yl)-hydrazine] | 130 nM | – | –
8 | C(=N\Nc1cc(N2CCOCC2)c2nc(-c3ccncc3)cn2n1)/c1ccc2cc[nH]c2c1 [Compound 15, N-(1H-indol-6-yl-methylidene)-N′-(8-morpholin-4-yl-2-pyridin-4-yl-imidazo[1,2-b]pyridazin-6-yl)-hydrazine] | 54 nM | – | –
9 | CCCCC(C)c1cccc(/C=N/Nc2cc(N3CCOCC3)c3nc(-c4ccncc4)cn3n2)c1 (stereo not drawn) [Compound 18, N-[3-(1-methyl-pentyl)-benzylidene]-N′-(8-morpholin-4-yl-2-pyridin-4-yl-imidazo[1,2-b]pyridazin-6-yl)-hydrazine] | 1100 nM | – | –
10 | C(=N\Nc1cc(N2CCOCC2)c2nc(-c3ccncc3)cn2n1)/c1cc2ccccc2[nH]1 [Compound 21, N-(1H-indol-2-ylmethylene)-N-(8-morpholin-4-yl-2-pyridin-4-yl-imidazo[1,2-b]pyridazin-6-yl)-hydrazine] | 16 nM | – | 340 nM
11 | FC(F)c1cccc(/C=N/Nc2cc(N3CCOCC3)c3nc(-c4ccncc4)cn3n2)c1 [Compound 22, N-(3-difluoromethyl-benzylidene)-N-(8-morpholin-4-yl-2-pyridin-4-yl-imidazo[1,2-b]pyridazin-6-yl)-hydrazine] | 40 nM | – | 110 nM
12 | Cc1ccc(/C=N/Nc2cc(N3CCOCC3)c3nc(-c4ccncc4)cn3n2)cc1 [Compound 25, N-(4-methyl-benzylidene)-N′-(8-morpholin-4-yl-2-pyridin-4-yl-imidazo[1,2-b]pyridazin-6-yl)-hydrazine] | 44 nM | – | 63 nM
13 | Cc1ccccc1/C=N/Nc1cc(N2CCOCC2)c2nc(-c3ccncc3)cn2n1 [Compound 28, N-(2-methyl-benzylidene)-N′-(8-morpholin-4-yl-2-pyridin-4-yl-imidazo[1,2-b]pyridazin-6-yl)-hydrazine] | 76 nM | – | 290 nM
14 | Cc1cccc(/C=N/Nc2cc(N3CCOCC3)c3nc(-c4cn[nH]c4)cn3n2)c1 [Compound 29, N-(3-methyl-benzylidene)-N′-{8-morpholin-4-yl-2-(1H-pyrazol-4-yl)-imidazo[1,2-b]pyridazin-6-yl}-hydrazine] | 1.1 nM | – | 1400 nM

Continued by falling IC50 [1], values first:

Row | IC50 [1] | IC50 (TNF-α) | IC50 [2] | Compound
15 | 370 nM | – | – | Cc1ccc(/C=N/Nc2cc(N3CCOCC3)c3nc(-c4ccncc4)cn3n2)[nH]1 [Compound 24, N-(5-methyl-1H-pyrrol-2-ylmethylene)-N-(8-morpholin-4-yl-2-pyridin-4-yl-imidazo[1,2-b]pyridazin-6-yl)-hydrazine]
16 | 140 nM | – | – | Cc1[nH]c2ccc(/C=N/Nc3cc(N4CCOCC4)c4nc(-c5ccncc5)cn4n3)cc2c1C [Compound 12, N-(2,3-dimethyl-1H-indol-5-yl-methylidene)-N′-(8-morpholin-4-yl-2-pyridin-4-yl-imidazo[1,2-b]pyridazin-6-yl)-hydrazine]
17 | 92 nM | – | – | C(=N\Nc1cc(N2CCOCC2)c2nc(-c3ccncc3)cn2n1)/c1c[nH]c2ccccc12 [Compound 6, N-(1H-indol-3-yl-methylidene)-N′-(8-morpholin-4-yl-2-pyridin-4-yl-imidazo[1,2-b]pyridazin-6-yl)-hydrazine]
18 | 77 nM | – | – | C=C(C)c1cccc(/C=N/Nc2cc(N3CCOCC3)c3nc(-c4ccncc4)cn3n2)c1 [Compound 16, N-(3-isopropenyl-benzylidene)-N′-(8-morpholin-4-yl-2-pyridin-4-yl-imidazo[1,2-b]pyridazin-6-yl)-hydrazine]
19 | 63 nM | – | 550 nM | CN(C)c1cccc(/C=N/Nc2cc(N3CCOCC3)c3nc(-c4ccncc4)cn3n2)c1 [Compound 23, N-(3-dimethylamino-benzylidene)-N-(8-morpholin-4-yl-2-pyridin-4-yl-imidazo[1,2-b]pyridazin-6-yl)-hydrazine]
20 | 46 nM | – | 270 nM | FCc1ccc(/C=N/Nc2cc(N3CCOCC3)c3nc(-c4ccncc4)cn3n2)cc1 [Compound 26, N-(4-fluoromethyl-benzylidene)-N′-(8-morpholin-4-yl-2-pyridin-4-yl-imidazo[1,2-b]pyridazin-6-yl)-hydrazine]
21 | 44 nM | – | 1200 nM | CN1CCc2ccc(/C=N/Nc3cc(N4CCOCC4)c4nc(-c5ccncc5)cn4n3)cc21 [Compound 27, N-(N-methylindoline-6-ylmethylene)-N-(8-morpholin-4-yl-2-pyridin-4-yl-imidazo[1,2-b]pyridazin-6-yl)-hydrazine]
22 | 40 nM | – | – | Cc1cccc(/C=N/Nc2cc(N3CCOCC3)c3nc(-c4ccc(N5CCCC5)cc4)cn3n2)c1 [Compound 7, N-(3-methyl-benzylidene)-N′-[8-morpholin-4-yl-2-(4-pyrrolidin-1-yl-phenyl)-imidazo[1,2-b]pyridazin-6-yl]-hydrazine]
23 | 37 nM | – | – | CC(=O)c1cccc(/C=N/Nc2cc(N3CCOCC3)c3nc(-c4ccncc4)cn3n2)c1 [Compound 17, N-(3-acetyl-benzylidene)-N′-(8-morpholin-4-yl-2-pyridin-4-yl-imidazo[1,2-b]pyridazin-6-yl)-hydrazine]
24 | 33 nM | – | – | Cc1cccc(/C=N/Nc2cc(N3CCOCC3)c3nc(-c4cnn(-c5ccccc5)c4C)cn3n2)c1 [Compound 5, N-(3-methyl-benzylidene)-N′-[2-(5-methyl-1-phenyl-1H-pyrazol-4-yl)-8-morpholin-4-yl-imidazo[1,2-b]pyridazin-6-yl]-hydrazine]
25 | 15 nM | – | 1500 nM | Cc1cccc(/C=N/Nc2cc(N3CCOCC3)c3nc(-c4ccc(-c5ccccn5)s4)cn3n2)c1 [Compound 8, N-(3-methyl-benzylidene)-N′-[8-morpholin-4-yl-2-(5-pyridin-2-yl-thiophen-2-yl)-imidazo[1,2-b]pyridazin-6-yl]-hydrazine]
26 | 9.4 nM | – | 150 nM | C(=N\Nc1cc(N2CCOCC2)c2nc(-c3ccncc3)cn2n1)/c1ccc2occc2c1 [Compound 20, N-benzofuran-5-ylmethylene-N′-(8-morpholin-4-yl-2-pyridin-4-yl-imidazo[1,2-b]pyridazin-6-yl)-hydrazine]
27 | 8.7 nM | > 10000 nM | 3000 nM | Cc1cccc(/C=N/Nc2cc(N3CCOCC3)c3nc(-c4cccnc4)cn3n2)c1 [Compound 3, N-(3-methyl-benzylidene)-N′-(8-morpholin-4-yl-2-pyridin-3-yl-imidazo[1,2-b]pyridazin-6-yl)-hydrazine]
28 | 6.4 nM | – | – | C=Cc1cccc(/C=N/Nc2cc(N3CCOCC3)c3nc(-c4ccncc4)cn3n2)c1 [Compound 19, N-(3-vinyl-benzylidene)-N-(8-morpholin-4-yl-2-pyridin-4-yl-imidazo[1,2-b]pyridazin-6-yl)-hydrazine]
29 | 5.2 nM | – | 1900 nM | Cc1ccc(-c2cn3nc(N/N=C/c4c[nH]c5ccccc45)cc(N4CCOCC4)c3n2)cn1 [Compound 30, N-(1H-indol-3-yl-methylene)-N′-[2-(6-methyl-pyridin-3-yl)-8-morpholin-4-yl-imidazo[1,2-b]pyridazin-6-yl]-hydrazine]
30 | 3.6 nM | > 10000 nM | 470 nM | Cc1cccc(/C=N/Nc2cc(N3CCOCC3)c3nc(-c4ccncc4)cn3n2)c1 [Compound 4, N-(3-methyl-benzylidene)-N′-(8-morpholin-4-yl-2-pyridin-4-yl-imidazo[1,2-b]pyridazin-6-yl)-hydrazine]
